Assays:
[1] = target: human TRPM8; experiment: TRPM8 Protocol-FLIPR Assay (intracellular Ca2+ in HEK-293 cells stably transfected with human TRPM8); format: cell-based; settings: HEK-293 cells stably transfected with human TRPM8, Fluo-4 AM, read-out: TRPM8 EC 50 Value
Description: (§1) Trypsin was inactivated by addition of 8 ml growth medium. Cells were transferred to a 50 ml tube and centrifuged at 850 rpm for 3 minutes to remove medium. After centrifugation, a pellet of cells was formed in the bottom of the tube separating them from the supernatant solution. […] Fluo-4 AM is a fluorescent dye used for quantifying cellular Ca^2+ concentrations in the 100 nM to 1 microM range. At the end of 30 minutes, 45 ml of assay buffer (1×BSS (Hank's Balanced Salt Solution), 20 mM HEPES (4-(2-Hydroxyethyl)-1-piperazineethanesulfonic acid)) was added to wash cells and the resulting mixture was then centrifuged at 850 rpm for 3 minutes to remove excess buffer and Fluo-4 AM calcium indicator.
(§2) The pelleted cells were re-suspended in 10 ml assay buffer and 90 μl aliquots (˜50,000 cells) per well delivered to a 96-well assay plate containing 10 μl of test compounds (1 mM in assay buffer, final concentration 100 μM) or buffer control and incubated at room temperature for 30 minutes. After 30 minutes, a plate was placed into a fluorometric imaging plate reader (FLIPR384 from Molecular Devices, Sunnyvale, Calif.) and basal fluorescence recorded (excitation wave length 488 nm and emission wave length 510 nm). Then 20 μl of […] of TRPM8 agonist WS5 coolant in the assay buffer was added and fluorescence recorded. For determining the direct effect of test compounds on TRPM8, fluorescence was measured immediately after addition of each compound (TABLE 1).

[2] = concentration where the cooling effect could be clearly recognized; cited from earlier work
[3] = Sensory evaluation of cooling intensity after brushing with dentifrice; format: in vivo; settings: avg 7 panelists, dentifrice with 0.001% (10 ppm) coolant
Description: Dentifrices were prepared using conventional methods, such as the protocols described in U.S. Pat. No. 8,747,814, which contained no coolant (SAMPLE A—Crest Cavity Protection) or having a coolant from TABLE 1 (SAMPLE B), in a flavor (wintergreen) at 10 parts per million (ppm).
Sensory evaluation studies of coolant activity were conducted using a methodology patterned after the techniques described in M. C. Meilgaard, et al., Sensory Evaluation Techniques, 4th Ed. (2007). Seven panelists brushed with a dentifrice from TABLE 2, having no coolant (SAMPLE A) or having a coolant from TABLE 1 (SAMPLE B), for two minutes, in a flavor (wintergreen) at 10 parts per million (ppm). After brush expectoration, panelists then rinsed their mouth with 15 ml of an aqueous rinse and expectorated.

[4] = target: human TRPM8 (UniProt Q8R4D5); experiment: TRPM8 Protocol-FLIPR Assay (intracellular Ca2+ in HEK-293 cells stably transfected with human TRPM8); format: cell-based; settings: HEK-293 cells stably transfected with human TRPM8, Fluo-4 AM
Description: as §1, §2

| EC50 [1] [nM] | Structure (SMILES) | further results |
| --- | --- | --- |
| 32800 | CC(C)[C@@H]1CC[C@@H](C)C[C@H]1OC(=O)[C@@H](NC(=O)[C@H](C)N)c1ccccc1 [#22] | – |
| 64 | CC(C)[C@@H]1CC[C@@H](C)C[C@H]1C(=O)OC[C@@H](NC(=O)CN)c1ccccc1 [#4] | – |
| – | CC(C)[C@@H]1CC[C@@H](C)C[C@@H]1O [d-neomenthol] | cooling threshold [2]: about 25,000 ppb |
| 2070 | CC(C)[C@@H]1CC[C@@H](C)C[C@H]1OC(=O)CC(NCc1ccccn1)c1ccccc1 (some centres unmarked) [#16] | – |
| 36.8 | CC(C)[C@@H]1CC[C@@H](C)C[C@H]1OC(=O)C[C@@H](NC(=O)[C@@H](C)N)c1ccccc1 [#10] | – |
| 4280 | CC(C)[C@@H]1CC[C@@H](C)C[C@H]1OC(=O)C(Cc1ccccc1)NC(=O)CN (some centres unmarked) [#19] | – |
| 23200 | CC(C)[C@@H]1CC[C@@H](C)C[C@H]1C(=O)OC[C@@H](NC(=O)CNC(=O)OC(C)(C)C)c1ccccc1 [#3] | – |
| 19000 | CC(C)[C@@H]1CC[C@@H](C)CC1OC(=O)c1ccccc1NC(=O)CN (some centres unmarked) [#34] | – |
| 34100 | CC(C)[C@@H]1CC[C@@H](C)C[C@H]1OC(=O)[C@@H](NC(=O)CN)c1ccccc1 [#23] | – |
| 8000 | CC1CCC(C(C)C)C(OC(=O)CC(N)c2ccccc2)C1 (centres unmarked) [#7] | – |
| 2950 | CC(C)[C@@H]1CC[C@@H](C)C[C@@H]1OC(=O)C[C@@H](NC(=O)CN)c1ccccc1 [#18] | – |
| 145000 | CC(C)[C@@H]1CC[C@@H](C)C[C@H]1COC(=O)C(NC(=O)CN)c1ccccc1 (some centres unmarked) [#27] | – |
| 882 | CC(C)[C@H]1CC[C@H](C)C[C@@H]1OC(=O)C[C@@H](NC(=O)CN)c1ccccc1 [#13] | – |
| 139000 | CC(C)[C@@H]1CC[C@@H](C)C[C@H]1C(=O)OC[C@@H](OC(=O)[C@@H]1C[C@H](C)CC[C@H]1C(C)C)c1ccccc1 [#26] | – |
| 8.08 | CC(C)[C@@H]1CC[C@@H](C)C[C@H]1C(=O)OC[C@@H](NC(=O)[C@@H](C)N)c1ccccc1.Cl [#1] | Cooling Rating (0-90) of Dentifrice ([3]; Time 0 min, wintergreen flavor, 0 = no cooling, 90 = cold as ice): 33.57; Cooling Rating (0-90) of Dentifrice ([3]; Time 15 min): 32.71; Cooling Rating (0-90) of Dentifrice ([3]; Time 30 min): 26.43; Cooling Rating (0-90) of Dentifrice ([3]; Time 60 min): 35.71; Cooling Rating (0-90) of Dentifrice ([3]; Time 120 min): 40.00; Cooling Rating (0-90) of Dentifrice ([3]; Time 180 min): 36.43; Cooling Rating (0-90) of Dentifrice ([3]; Time 240 min): 34.29; Cooling Rating (0-90) of Dentifrice ([3]; Time 300 min): 30.71; Cooling Rating (0-90) of Dentifrice ([3]; Time 360 min): 30.71; Cooling Rating (0-90) of Dentifrice ([3]; Time 420 min): 23.57; Cooling Rating (0-90) of Dentifrice ([3]; Time 480 min): 20.71 |
| – | CC(C)[C@@H]1CC[C@@H](C)C[C@H]1OC(=O)C[C@@H](NC(=O)CNC(=O)OC(C)(C)C)c1ccccc1 [#8] | TRPM8 EC 50 Value [4]: Too high to measure |
| 1960 | CC(C)[C@@H]1CC[C@@H](C)C[C@H]1OC(=O)CC(NCCN)c1ccccc1 (some centres unmarked) [#15] | – |
| – | CC(C)[C@@H]1CC[C@@H](C)C[C@H]1OC(=O)C[C@@H](NC(=O)OC(C)(C)C)c1ccccc1 [#6] | TRPM8 EC 50 Value [4]: Too high to measure |
| – | CC(C)[C@@H]1CC[C@@H](C)C[C@@H]1O [Sample 1-neomenthol, 1-neomenthol] | cooling threshold [2]: about 3,000 ppb |
| 343 | CC(C)[C@@H]1CC[C@@H](C)C[C@H]1C(=O)OC[C@@H](NC(=O)[C@H](C)N)c1ccccc1 [#11] | – |
| 4470 | CC(C)[C@@H]1CC[C@@H](C)C[C@H]1C(=O)OC[C@@H](OC(=O)CNC(=O)OC(C)(C)C)c1ccccc1 [#20] | – |
| – | CC(C)[C@@H]1CC[C@@H](C)C[C@H]1O [L-menthol] | cooling threshold [2]: about 800 ppb |
| 60200 | CC1CCC(C(C)C)C(OC(=O)C(N)c2ccccc2)C1 (centres unmarked) [#5] | – |
| 62 | CC(C)[C@@H]1CC[C@@H](C)C[C@H]1OC(=O)C[C@@H](NC(=O)CN)c1ccccc1 [#2] | – |
| 4960 | CC(C)[C@H]1CC[C@@H](C)C[C@@H]1OC(=O)C[C@@H](NC(=O)CN)c1ccccc1 [#21] | – |
| 2260 | CC(C)[C@@H]1CC[C@@H](C)C[C@H]1C(=O)OC[C@H](NC(=O)CN)c1ccccc1 [#17] | – |
| 13 | CC(C)[C@@H]1CC[C@@H](C)C[C@H]1C(=O)OC[C@@H](OC(=O)CN)c1ccccc1 [#9] | – |
| 9500 | CC(C)[C@@H]1CC[C@@H](C)C[C@H]1OC(=O)CCCCCN [#25] | – |
| 590 | CC(C)[C@@H]1CC[C@@H](C)C[C@H]1C(=O)OC[C@@H](O)c1ccccc1 [#12] | – |
| 914 | CC(C)[C@@H]1CC[C@@H](C)C[C@H]1OC(=O)C[C@@H](NC(=O)[C@H](C)N)c1ccccc1 [#14] | – |
